Results taken from US20100178243A1, “Novel method of stabilizing diagnostic and therapeutic compounds in a cationic carrier system” (MediGene AG, priority 2002, published 2010).

Test system: A-375 Melanoma
Assay: Therapeutic efficacy of LipoCam in A-375 melanoma of nude mice
Assay type: in vivo
Settings: iv, three times a week for three weeks, equitoxic doses; s.c. A-375 tumors; FIG. 11
Method: NMRI-nude mice were purchased from Elevage Janvier and housed in isolated ventilated cages under save environmental conditions (SPF facility, 22° C., 30-70% humidity, 12 h light/dark cycle) with food and water ad libitum. Experimental design was reviewed and approved by local government.
Tumor cells (A-375 human melanoma cell line, ATCC Nr.: CRL-1619) were grown as described in the data sheet supplied by ATCC. Tumor cells (5×10^6 in PBS) were inoculated s.c. in the right dorsal flank of mice in a volume of 50 μl on day 0.
Mice were assigned to the experimental groups (8 animals per cage), housed and handled (including monitoring of the body weight gain) at least five days before tumor inoculation (=day −6 to 0). […] Equitoxic doses of the compounds were determined in separate experiments, where toxicity was evaluated based on haematological parameters, body weight and animal clinical observations. […]
Animals were clinically monitored during the whole experiment and for at least one week after treatment was finished. […] The tumor dimensions were measured by calliper and the tumor size was calculated according to the following formula: V=πLW^2/6 (L=greatest length, W=width of perpendicular axis). […] The number of red and white blood cells and platelets were determined using an automated cell counter (Abbott Cell Dyn 3500).

CC[C@@](O)(C(=O)[O-])c1cc2n(c(=O)c1CO)Cc1cc3ccccc3nc1-2.[Na+] [CPT-Na-Carboxylate]
anti-tumor effect (in words): only a retardation as compared to the control group
